How the values were obtained:
[1] = test system: corticosterone-treated mice; assay: Sucrose preference test, chronic administration; assay type: in vivo; conditions: chronic 1mg/kg ip daily
Procedure: Three well-established mouse models of depression-like behavior have been used in the present study namely i- the long-term corticosterone treatment in the drinking water (David, Samuels et al. 2009), ii- the peripheral administration of LPS (O'Connor, Lawson et al. 2009) iii- the ApN^-/- mice (Liu, Guo et al. 2012). For chronic AdipoRon treatment, the experimental protocol was as followed: • i- Five weeks old male mice (five/cage) received corticosterone (35mg/L dissolved in tap water containing 4 g/L CD) or vehicle alone ad libitum for during 7 consecutive weeks (David, Samuels et al. 2009). Corticosterone and vehicle solutions were changed every 3 days to prevent possible degradation. […]
All behavioral testing were conducted during the light phase (between 09:00 and 14:00 am) in compliance with the Institutional Animal Care and Use Committee of the University of Nice-Sophia Antipolis (permission number 010344.01 from the French "Ministère de l'Enseignement Supérieur et de la Recherche" granted to Dr. Joëlle Chabry). • Forced Swimming test (FST) - Mice were placed an inescapable transparent tank (20cm diameter, 30cm deep) filled with water (23°C ± 0.5) for six minutes as previously described by Porsolt et al. (1977). […] To initiate testing, mice were placed into the light side and activity was recorded for 5 minutes. […]

[2] = test system: wt mice; assay: Rotarod, motor coordination; assay type: in vivo; conditions: chronic ip 1mg/kg for twenty consecutive days
Procedure: All behavioral testing were conducted during the light phase (between 09:00 and 14:00 am) in compliance with the Institutional Animal Care and Use Committee of the University of Nice-Sophia Antipolis (permission number 010344.01 from the French "Ministère de l'Enseignement Supérieur et de la Recherche" granted to Dr. Joëlle Chabry). • Forced Swimming test (FST) - Mice were placed an inescapable transparent tank (20cm diameter, 30cm deep) filled with water (23°C ± 0.5) for six minutes as previously described by Porsolt et al. (1977). The immobility duration, as an index of the resignation, was timed during the last four minutes of the test. A mouse was considered immobile when it remained floating with only slight movements to keep its head out of the water. • Open-field test (OF) - Locomotor activity was determined using open-field (OF) activity. […] Twenty-four hours later, the latency to fall, an index of the motor coordination, was recorded on accelerating rod (from 10 to 40 rpm/min). • Light & Dark test (L&D) - The L&D place preference test was used to assess the anxiety-like behavior. […] To initiate testing, mice were placed into the light side and activity was recorded for 5 minutes. […] The amount of water and 1% sucrose solution was measured twenty-four hours later. […]

Structure (SMILES): O=C(COc1ccc(C(=O)c2ccccc2)cc1)NC1CCN(Cc2ccccc2)CC1 [AdipoRon, 2-(4-Benzoylphenoxy)-N-[1-(phenylmethyl)-4-piperidinyl]-acetamide]
- sucrose preference (anhedonia) ([1]; corticosterone-treated mice): reversed the effect of corticosterone
- sucrose preference (anhedonia) ([1]; vehicle-treated mice (no corticosterone)): no significant effect
- motor coordination (rotarod) [2]: did not significantly modify

Source: patent EP3431468B1, “USE OF ADIPONECTIN RECEPTOR AGONISTS IN TREATING DEPRESSION, ANXIETY AND NEUROINFLAMMATION” (CENTRE NATIONAL DE LA RECHERCHE SCIENTIFIQUE, priority 2017, dated 2019)
